In brackets after ≈: the same amount, converted by molar mass.
Experiments:
E coli = test: MIC assay, E coli; assay type: cell-based
E. faecalis = test: MIC assay, E. faecalis; assay type: cell-based, Enterococcus faecalis
S. pneumo. = test: MIC assay, S. pneumo.; assay type: cell-based, Streptococcus pneumoniae
H. flu = assay type: cell-based, H. influenza; conditions: H. flu
S. aureus = test: MIC assay, S. aureus; assay type: cell-based, Staphylococcus aureus

Row | SMILES | MIC (μg/mL) E coli (E coli) [µg/mL] | MIC (μg/mL) E. faecalis (E. faecalis) [µg/mL] | MIC (μg/mL) S. pneumo. (S. pneumo.) [µg/mL] | MIC (μg/mL) H. flu (H. flu) [µg/mL] | MIC (μg/mL) S. aureus (S. aureus) [µg/mL]
1 | COC1C=COC2(C)Oc3c(C)c(O)c4c(=O)c(c5oc6cc(N7CCC(NC(=O)N8CCC(NC(=O)SC)CC8)CC7)cc(O)c6nc-5c4c3C2=O)NC(=O)C(C)=CC=CC(C)C(O)C(C)C(O)C(C)C(OC(C)=O)C1C (centres unmarked) [Compound 49, 3′-hydroxy-5′-[4-(4-(S-methylthiocarbamyl)-1-piperidinylcarbonyl)amino-1-piperidinyl]benzoxazinorifamycin] | >8 | 8 (≈ 7.28 µM) | 0.0005 (≈ 0.000455 µM) | 2 (≈ 1.82 µM) | 0.06 (≈ 0.0546 µM)
2 | COC1C=COC2(C)Oc3c(C)c(O)c4c(=O)c(c5oc6cc(N7CCC(NC(=O)N8CCN(C)CC8)CC7)cc(O)c6nc-5c4c3C2=O)NC(=O)C(C)=CC=CC(C)C(O)C(C)C(O)C(C)C(OC(C)=O)C1C (centres unmarked) [Compound 50, 3′-hydroxy-5′-[4-(4-methylpiperazinylcarbonyl)amino-1-piperidinyl]benzoxazinorifamycin] | >8 | 4 (≈ 3.9 µM) | 0.00012 (≈ 0.000117 µM) | 0.5 (≈ 0.488 µM) | 0.03 (≈ 0.0293 µM)
3 | CCOC(=O)NCC1CCN(c2cc(O)c3nc4c5c6c7c(C)c(O)c5c(=O)c(c-4oc3c2)NC(=O)C(C)=CC=CC(C)C(O)C(C)C(O)C(C)C(OC(C)=O)C(C)C(OC)C=COC(C)(O7)C6=O)CC1 (centres unmarked) [Compound 51] | 8 (≈ 8.12 µM) | 8 (≈ 8.12 µM) | 0.002 (≈ 0.00203 µM) | 0.25 (≈ 0.254 µM) | 0.06 (≈ 0.0609 µM)
4 | COC1C=COC2(C)Oc3c(C)c(O)c4c(=O)c(c5oc6cc(N7CCC(NC(=O)OC(C)(C)C)CC7)cc(O)c6nc-5c4c3C2=O)NC(=O)C(C)=CC=CC(C)C(O)C(C)C(O)C(C)C(O)C1C (centres unmarked) [Compound 52, 25-O-deacetyl-3′-hydroxy-5′-[4-(2,2-dimethylethyl)carbamyl-1-piperidinyl]benzoxazinorifamycin] | >8 | 4 (≈ 4.18 µM) | 0.00025 (≈ 0.000261 µM) | 0.12 (≈ 0.125 µM) | 0.015 (≈ 0.0157 µM)
5 | COC1C=COC2(C)Oc3c(C)c(O)c4c(=O)c(c5oc6cc(N7CC8C(C7)C8N(C)C)cc(O)c6nc-5c4c3C2=O)NC(=O)C(C)=CC=CC(C)C(O)C(C)C(O)C(C)C(OC(C)=O)C1C [Compound 53, 3′-hydroxy-5′-[6-N,N-dimethylamino-(1R,5S)-3-azabicyclo[3.1.0]hex-3-yl]benzoxazinorifamycin] | >8 | 4 (≈ 4.32 µM) | 0.008 (≈ 0.00865 µM) | 2 (≈ 2.16 µM) | 0.06 (≈ 0.0649 µM)
6 | COC1C=COC2(C)Oc3c(C)c(O)c4c(=O)c(c5oc6cc(N7CC8C(C7)C8N(C)C)cc(O)c6nc-5c4c3C2=O)NC(=O)C(C)=CC=CC(C)C(O)C(C)C(O)C(C)C(O)C1C [Compound 54, 3′-hydroxy-5′-[6-N,N-dimethylamino-(1R,5S)-3-azabicyclo[3.1.0]hex-3-yl]benzoxazinorifamycin] | >8 | 2 (≈ 2.26 µM) | 0.0005 (≈ 0.000566 µM) | 0.25 (≈ 0.283 µM) | 0.008 (≈ 0.00906 µM)
7 | COC1C=COC2(C)Oc3c(C)c(O)c4c(=O)c(c5oc6cc(N7CCC(CNC(C)=O)CC7)cc(O)c6nc-5c4c3C2=O)NC(=O)C(C)=CC=CC(C)C(O)C(C)C(O)C(C)C(OC(C)=O)C1C (centres unmarked) [Compound 55, 3′-hydroxy-5′-[4-acetylaminomethyl-1-piperidinyl]benzoxazinorifamycin] | 8 (≈ 8.38 µM) | 1 (≈ 1.05 µM) | 0.00025 (≈ 0.000262 µM) | 0.5 (≈ 0.524 µM) | 0.008 (≈ 0.00838 µM)
8 | COC1C=COC2(C)Oc3c(C)c(O)c4c(=O)c(c5oc6cc(N7CCC(CNC(C)=O)CC7)cc(O)c6nc-5c4c3C2=O)NC(=O)C(C)=CC=CC(C)C(O)C(C)C(O)C(C)C(O)C1C (centres unmarked) [Compound 56, 25-O-deacetyl-3′-hydroxy-5′-[4-acetylaminomethyl-1-piperidinyl]benzoxazinorifamycin] | 8 (≈ 8.76 µM) | 0.12 (≈ 0.131 µM) | 0.001 (≈ 0.0011 µM) | 0.25 (≈ 0.274 µM) | 0.004 (≈ 0.00438 µM)
9 | COC1C=COC2(C)Oc3c(C)c(O)c4c(=O)c(c5oc6cc(N7CCC(c8ccccc8)CC7)cc(O)c6nc-5c4c3C2=O)NC(=O)C(C)=CC=CC(C)C(O)C(C)C(O)C(C)C(OC(C)=O)C1C (centres unmarked) [Compound 57, 3′-hydroxy-5′-[4-phenyl-1-piperidinyl]benzoxazinorifamycin] | 8 (≈ 8.33 µM) | 2 (≈ 2.08 µM) | 0.0005 (≈ 0.000521 µM) | 0.5 (≈ 0.521 µM) | 0.008 (≈ 0.00833 µM)
10 | COC1C=COC2(C)Oc3c(C)c(O)c4c(=O)c(c5oc6cc(N7CC8CCCN(C)C8C7)cc(O)c6nc-5c4c3C2=O)NC(=O)C(C)=CC=CC(C)C(O)C(C)C(O)C(C)C(OC(C)=O)C1C [Compound 58, 3′-hydroxy-5′-[1-methyl-(4aS,7aS)-octahydro-6H-pyrrolo[3,4-b]pyridin-6-yl]benzoxazinorifamycin] | >8 | 1 (≈ 1.06 µM) | 0.004 (≈ 0.00426 µM) | 0.25 (≈ 0.266 µM) | 0.03 (≈ 0.0319 µM)
11 | COC1C=COC2(C)Oc3c(C)c(O)c4c(=O)c(c5oc6cc(N7CC8CCCN(C)C8C7)cc(O)c6nc-5c4c3C2=O)NC(=O)C(C)=CC=CC(C)C(O)C(C)C(O)C(C)C(O)C1C [Compound 59, 25-O-deacetyl-3′-hydroxy-5′-[1-methyl-(4aS,7aS)-octahydro-6H-pyrrolo[3,4-b]pyridin-6-yl]benzoxazinorifamycin] | 4 (≈ 4.46 µM) | 0.06 (≈ 0.0669 µM) | 0.001 (≈ 0.00111 µM) | 0.12 (≈ 0.134 µM) | 0.004 (≈ 0.00446 µM)
12 | CCOC(=O)NCC1CCN(c2cc(O)c3nc4c5c6c7c(C)c(O)c5c(=O)c(c-4oc3c2)NC(=O)C(C)=CC=CC(C)C(O)C(C)C(O)C(C)C(O)C(C)C(OC)C=COC(C)(O7)C6=O)CC1 (centres unmarked) [Compound 60, 25-O-deacetyl-3′-hydroxy-5′-[4-ethylcarbamylmethyl-1-piperidinyl]benzoxazinorifamycin] | >8 | 0.5 (≈ 0.53 µM) | 0.0005 (≈ 0.00053 µM) | 0.06 (≈ 0.0636 µM) | 0.008 (≈ 0.00848 µM)
13 | COC1C=COC2(C)Oc3c(C)c(O)c4c(=O)c(c5oc6cc(N7CCC(CCO)CC7)cc(O)c6nc-5c4c3C2=O)NC(=O)C(C)=CC=CC(C)C(O)C(C)C(O)C(C)C(OC(C)=O)C1C (centres unmarked) [Compound 61, 3′-hydroxy-5′-[4-(2-hydroxyethyl)-1-piperidinyl]benzoxazinorifamycin] | >8 | 1 (≈ 1.08 µM) | 0.00012 (≈ 0.000129 µM) | 0.25 (≈ 0.269 µM) | 0.004 (≈ 0.00431 µM)
14 | COC1C=COC2(C)Oc3c(C)c(O)c4c(=O)c(c5oc6cc(N7CCC(c8ccccc8)CC7)cc(O)c6nc-5c4c3C2=O)NC(=O)C(C)=CC=CC(C)C(O)C(C)C(O)C(C)C(O)C1C (centres unmarked) [Compound 62, 25-O-deacetyl-3′-hydroxy-5′-[4-phenyl-1-piperidinyl]benzoxazinorifamycin] | >8 | 8 (≈ 8.71 µM) | 0.008 (≈ 0.00871 µM) | 0.5 (≈ 0.545 µM) | 0.015 (≈ 0.0163 µM)
15 | COCCOC(=O)NC1CCN(c2cc(O)c3nc4c5c6c7c(C)c(O)c5c(=O)c(c-4oc3c2)NC(=O)C(C)=CC=CC(C)C(O)C(C)C(O)C(C)C(O)C(C)C(OC)C=COC(C)(O7)C6=O)CC1 (centres unmarked) [Compound 63, 25-O-deacetyl-3′-hydroxy-5′-[4-methoxyethylcarbamyl-1-piperidinyl]benzoxazinorifamycin] | 8 (≈ 8.34 µM) | 1 (≈ 1.04 µM) | 0.002 (≈ 0.00209 µM) | 0.25 (≈ 0.261 µM) | 0.008 (≈ 0.00834 µM)
16 | COC1C=COC2(C)Oc3c(C)c(O)c4c(=O)c(c5sc6cc(N7CC(C)NC(C)C7)ccc6nc-5c4c3C2=O)NC(=O)C(C)=CC=CC(C)C(O)C(C)C(O)C(C)C(OC(C)=O)C1C [Compound 64, 5′-[(3R,5S)-3,5-dimethyl-1-piperazinyl]benzthiazinorifamycin] | 4 (≈ 4.38 µM) | 0.12 (≈ 0.131 µM) | 0.00012 (≈ 0.000131 µM) | 0.25 (≈ 0.274 µM) | 0.004 (≈ 0.00438 µM)
17 | COC1C=COC2(C)Oc3c(C)c(O)c4c(=O)c(c5sc6cc(N7CC(C)NC(C)C7)ccc6nc-5c4c3C2=O)NC(=O)C(C)=CC=CC(C)C(O)C(C)C(O)C(C)C(O)C1C [Compound 65, 25-O-deacetyl-5′-[(3R,5S)-3,5-dimethyl-1-piperazinyl]benzthiazinorifamycin] | 2 (≈ 2.3 µM) | 0.12 (≈ 0.138 µM) | 0.00025 (≈ 0.000287 µM) | 0.12 (≈ 0.138 µM) | 0.002 (≈ 0.0023 µM)
18 | COC1C=COC2(C)Oc3c(C)c(O)c4c(=O)c(c5oc6cc(N7CCC(CCO)CC7)cc(O)c6nc-5c4c3C2=O)NC(=O)C(C)=CC=CC(C)C(O)C(C)C(O)C(C)C(O)C1C (centres unmarked) [Compound 66, 25-O-deacetyl-3′-hydroxy-5′-[4-(2-hydroxyethyl)-1-piperidinyl]benzoxazinorifamycin] | 4 (≈ 4.51 µM) | 0.12 (≈ 0.135 µM) | 0.0005 (≈ 0.000564 µM) | 0.12 (≈ 0.135 µM) | 0.004 (≈ 0.00451 µM)
19 | CCCS(=O)(=O)NC1CCN(c2cc(O)c3nc4c5c6c7c(C)c(O)c5c(=O)c(c-4oc3c2)NC(=O)C(C)=CC=CC(C)C(O)C(C)C(O)C(C)C(O)C(C)C(OC)C=COC(C)(O7)C6=O)CC1 (centres unmarked) [Compound 67] | >8 | 0.5 (≈ 0.519 µM) | 0.001 (≈ 0.00104 µM) | 0.12 (≈ 0.125 µM) | 0.008 (≈ 0.00831 µM)

From patent US7271165B2, “Rifamycin analogs and uses thereof” (priority 2003, dated 2007)
